# System: Normal Human dermal fibroblasts
# Assay: Procollagen assay (Procollagen Type-I C-Peptide EIA) in conditioned media of treated fibroblasts
# Type: cell-based
# Settings: 0.0005% compound, 48 hours, ELISA, p<0.05
# Procedure: Normal Human dermal fibroblasts were grown in DMEM (Mediatech; cat. #: 15-013-CV) containing 10% Fetal Bovine Serum (Perbio; cat. #: SH30070.03), Penicillin/Streptomycin (Mediatech, Cat #30-001-C1), L-Glutamine (Mediatech; cat. #: 25-005-CI) at 37° C. and 10% CO2. Cells were stripped of serum overnight, followed by treatment with the compound of Formula I(b) (0.0005%) or vehicle (DMSO), in the absence of serum for 48 hours.
# Reading was measured at 450 nm using a spectrophotometer.
# Human dermal fibroblasts treated with 0.0005% the compound of Formula I(b) for 48 hours were analyzed by ELISA for expression levels of pro-collagen. […] All values are statistically significant at p<0.05.
smiles,measurement,setting,value
N#Cc1cccc(CN2CCNC(=O)CC2c2nccs2)c1 (centres unmarked) [Formula I(b)],Procollagen,"serum-free, relative to vehicle (DMSO) control = 100%, 450 nm",146%
same,"pro-collagen expression level relative to control, vehicle treated cells",,significant increase

# Reference: patent US8865700B2, “Collagen stimulators and their use in the treatment of skin” (Avon Products, Inc., priority 2012, dated 2014)
